In US20070184098A1, “Esters of flavonoids with w-substituted c6-c22 fatty acids” (priority 2003, published 2007):
“And” between values parts separate entries of the source, which are not always exact repeats. Identical values can stand only once. Like-named read-outs stand apart in the source and are kept apart here. Values belong to the molecule of their own block, whether it stands above or below them.

Columns and labels:
[1] = molecular target: Lipoxygenase; experiment: Anti-free radical activity: superoxide anions released by lipoxygenase, Luminol probe; assay type: biochemical; details: mean of 2 assays; lipoxygenase with unsaturated fatty acid substrate
Experimental: The anti-free radical (anti-FR) activity has been evaluated by biochemical tests to address the potential for scavenging superoxide anion (O2°).
Lipoxygenase was incubated with a specific substrate (unsaturated fatty acid) and the flavonoid esters. Then the rate of released superoxide anions was determined using Luminol luminescent probe to calculate the IC50 (mean of 2 assays).

[2] = system: Human keratinocytes; experiment: UVB cytophotoprotection and anti-inflammatory effect (DNA, LDH and PGE2 released) on UVB-irradiated human keratinocytes; assay type: cell-based; details: UVB 50 mJ/cm2; for Keratinocytes DNA: irradiated control = 23, not irradiated = 100; for LDH released / PGE2 released: irradiated control = 100, not irradiated = 0
Excerpt: The arachidonic cascade is an important mechanism of cutaneous inflammation. This cascade may be induced by several factors, particularly by UVB irradiation. UVB induces the inflammatory response by activation of phospholipase A2 (PLA2), which results in a release of arachidonic acid from cell membranes. Then other specific enzymes (so called cyclo-oxygenases) transform arachidonic acid in active components called prostaglandin (PG) which are secreted from the cells. The fixation of certain prostaglandins (PGE2) on specific skin receptors is followed by redness and swelling on human skin. On cultured human cells, these UVB effects on cell's membrane are associated with a release of a cytoplasmic enzyme into the supernatant medium: Lactate Dehydrogenase or LDH.
Human keratinocytes were inoculated with growth medium (DMEM+FCS) and incubated 3 days at 37° C. and 5% CO2. The growth medium was then exchanged with balanced salt solution containing the ingredient to be tested, the cell culture was irradiated by UVB 50 mJ/cm^2 (DUKE GL40E lamp). After 1 day of incubation at 37° C. with 5% CO2, LDH and PGE2 released in the medium were determined, and cellular DNA was measured using a fluorescent probe to determine the cell viability.

[3] = system: Human fibroblasts; experiment: UVA cytophotoprotection, anti-oxidative effect (MDA released, cell proteins, GSH) on UVA-irradiated human fibroblasts; assay type: cell-based; details: UVA 20 J/cm2; for Cell GSH/protein ratio: irradiated control = 78, not irradiated = 100; for MDA released: irradiated control = 100, not irradiated = 0; for Cell proteins: irradiated control = 107, not irradiated = 100
Experimental: The cytoprotection against UVA irradiation has been evaluated by a test on human fibroblasts because UVA radiation penetrates through the epidermis until the dermis where it induces oxidative stress, mainly by activation of photosensitising biological components, which catalyse the formation of ROS like anion superoxide, hydrogen peroxide and singlet oxygen, and lipoperoxydation of the cell membrane. These oxidative stress effects are evaluated in vitro due to measuring of the level of released MDA (malondialdehyde) and of intracellular GSH (reduced glutathion) (Morliere P., Moisan A., Santus R., Huppe G., Mazière J. C., Dubertret L.: UV-A induced lipid peroxydation in cultured human fibroblasts Biochim. Biophys. Acta (1991) 1084, 3:261-269).
The lipoperoxides formed after UVA irradiation undergo a decay into malondialdehyde which can form cross-links between many biological molecules like proteins with inhibition of enzymes and nucleic bases with risk of mutagenesis. Glutathione (GSH) is a peptide produced by the cells to protect them from oxidative stress or certain pollutants like mercury or lead. An increase in the GSH level enhances the activity of glutathion-S-transferase, a detoxification enzyme. GSH is evaluated according to the method of Hissin (Hissin P. J., Hilf R. A fluorometric method for determination of oxydised and reduced Glutathione in tissues. Analytical Biochemistry (1977) vol 74, pp 214-226).
Human fibroblasts were inoculated with growth medium (DMEM+FCS) and incubated 3 days at 37° C., with 5% CO2. The growth medium was then exchanged with medium containing an ingredient to be tested and incubated 2 days at 37° C. with CO2=5%. After an exchange of medium with balanced salt solution, the cell culture was irradiated by UVA 20 J/cm^2. Cell proteins and GSH were measured, and MDA released in the supernatant was determined spectrophotometrically.

[4] = Solubility in hydrophilic and lipophilic solvent by HPLC; assay type: physicochemical; details: stirring 1 hour at room temperature; for solubility at 1 h: thermodynamic from solid
Experimental: The solubility was determined by HPLC measurement after stirring during 1 hour at room temperature.

- IC50 (w/v), released superoxide anions [1]: 0.0025 w/v
Molecule: CC1OC(OCC2OC(Oc3c(-c4ccc(O)c(O)c4)oc4cc(O)cc(O)c4c3=O)C(O)C(O)C2O)C(O)C(O)C1OC(=O)CCCCCCCC(=O)O (stereo not drawn) [Rutin azelaiate]
- Keratinocytes DNA ([2]; dose 0.003 % w/v): 51 % against control
- LDH released ([2]; dose 0.003 % w/v): 45 % against control
- PGE2 released ([2]; dose 0.003 % w/v): 28 % against control
- Keratinocytes DNA ([2]; dose 0.01 % w/v): 53 % against control
- LDH released ([2]; dose 0.01 % w/v): 27 % against control
- PGE2 released ([2]; dose 0.01 % w/v): 19 % against control
- Cell GSH/protein ratio ([3]; dose 0.001 % w/v): 67 % against control
- MDA released ([3]; dose 0.001 % w/v): 78 % against control
- Cell proteins ([3]; dose 0.001 % w/v): 144 % against control
- Cell GSH/protein ratio ([3]; dose 0.003 % w/v): 64 % against control
- MDA released ([3]; dose 0.003 % w/v): 64 % against control
- Cell proteins ([3]; dose 0.003 % w/v): 165 % against control

- IC50 (w/v), released superoxide anions [1]: 0.0034 w/v
Molecule: Rutin octadecandioate
- Keratinocytes DNA ([2]; dose 0.001 % w/v): 23 % against control
- LDH released ([2]; dose 0.001 % w/v): 73 % against control
- PGE2 released ([2]; dose 0.001 % w/v): 28 % against control
- Keratinocytes DNA ([2]; dose 0.003 % w/v): 49 % against control
- LDH released ([2]; dose 0.003 % w/v): 31 % against control
- PGE2 released ([2]; dose 0.003 % w/v): 3 % against control
- Cell GSH/protein ratio ([3]; dose 0.001 % w/v): 73 % against control
- MDA released ([3]; dose 0.001 % w/v): 46 % against control
- Cell proteins ([3]; dose 0.001 % w/v): 139 % against control
- Cell GSH/protein ratio ([3]; dose 0.003 % w/v): 122 % against control
- MDA released ([3]; dose 0.003 % w/v): 15 % against control
- Cell proteins ([3]; dose 0.003 % w/v): 133 % against control

Molecule: C[C@@H]1O[C@@H](OC[C@H]2O[C@@H](Oc3c(-c4ccc(O)c(O)c4)oc4cc(O)cc(O)c4c3=O)[C@H](O)[C@@H](O)[C@@H]2O)[C@H](O)[C@H](O)[C@H]1O [Rutin, reference compound]
- solubility at 1 h ([4]; butylene glycol, organic solvent or mixture, read-out: Solubility in butylene glycol): 22600 µg/mL and 37100 µM
- solubility at 1 h ([4]; octyl-dodecanol, oil or lipid, read-out: Solubility in octyl-dodecanol): 30 µg/mL and 50 µM
- solubility at 1 h ([4]; water, read-out: Solubility in water): 160 µg/mL and 270 µM
- Keratinocytes DNA ([2]; dose 0.03 % w/v): 69 % against control
- LDH released ([2]; dose 0.03 % w/v): 17 % against control
- PGE2 released ([2]; dose 0.03 % w/v): 0 % against control
- Keratinocytes DNA ([2]; dose 0.1 % w/v): 73 % against control
- LDH released ([2]; dose 0.1 % w/v): 18 % against control
- PGE2 released ([2]; dose 0.1 % w/v): 10 % against control
- Cell GSH/protein ratio ([3]; dose 0.003 % w/v): 72 % against control
- MDA released ([3]; dose 0.003 % w/v): 79 % against control
- Cell proteins ([3]; dose 0.003 % w/v): 126 % against control
- Cell GSH/protein ratio ([3]; dose 0.01 % w/v): 71 % against control
- MDA released ([3]; dose 0.01 % w/v): 72 % against control
- Cell proteins ([3]; dose 0.01 % w/v): 128 % against control

- IC50 (w/v), released superoxide anions [1]: 0.0028 w/v
Molecule: CC1OC(OCC2OC(Oc3c(-c4ccc(O)c(O)c4)oc4cc(O)cc(O)c4c3=O)C(O)C(O)C2O)C(O)C(O)C1OC(=O)CCCCCCCCCCCCCCC(=O)OC1C(C)OC(OCC2OC(Oc3c(-c4ccc(O)c(O)c4)oc4cc(O)cc(O)c4c3=O)C(O)C(O)C2O)C(O)C1O (stereo not drawn) [Dirutin hexadecandioate, dirutin hexadecandioate]
- Keratinocytes DNA ([2]; dose 0.001 % w/v): 38 % against control
- LDH released ([2]; dose 0.001 % w/v): 44 % against control
- PGE2 released ([2]; dose 0.001 % w/v): 3 % against control
- Keratinocytes DNA ([2]; dose 0.003 % w/v): 35 % against control
- LDH released ([2]; dose 0.003 % w/v): 33 % against control
- PGE2 released ([2]; dose 0.003 % w/v): 1 % against control
- Cell GSH/protein ratio ([3]; dose 0.001 % w/v): 98 % against control
- MDA released ([3]; dose 0.001 % w/v): 39 % against control
- Cell proteins ([3]; dose 0.001 % w/v): 138 % against control
- Cell GSH/protein ratio ([3]; dose 0.003 % w/v): 154 % against control
- MDA released ([3]; dose 0.003 % w/v): 9 % against control
- Cell proteins ([3]; dose 0.003 % w/v): 149 % against control

- Solubility in butylene glycol [4]: 39.4 g/L and 44.7 mM
- Solubility in octyl-dodecanol [4]: 0.13 g/L and 0.15 mM
- Solubility in water [4]: 0.38 g/L and 0.43 mM
- IC50 (w/v), released superoxide anions [1]: 0.0036 w/v
Molecule: CC1OC(OCC2OC(Oc3c(-c4ccc(O)c(O)c4)oc4cc(O)cc(O)c4c3=O)C(O)C(O)C2O)C(O)C(O)C1OC(=O)CCCCCCCCCCCCCCC(=O)O (stereo not drawn) [Rutin hexadecandioate, rutin hexadecandioate]
- Keratinocytes DNA ([2]; dose 0.003 % w/v): 24 % against control
- LDH released ([2]; dose 0.003 % w/v): 53 % against control
- PGE2 released ([2]; dose 0.003 % w/v): 2 % against control
- Keratinocytes DNA ([2]; dose 0.01 % w/v): 39 % against control
- LDH released ([2]; dose 0.01 % w/v): 19 % against control
- PGE2 released ([2]; dose 0.01 % w/v): 0 % against control
- Cell GSH/protein ratio ([3]; dose 0.003 % w/v): 101 % against control
- MDA released ([3]; dose 0.003 % w/v): 46 % against control
- Cell proteins ([3]; dose 0.003 % w/v): 129 % against control
- Cell GSH/protein ratio ([3]; dose 0.01 % w/v): 75 % against control
- MDA released ([3]; dose 0.01 % w/v): 21 % against control
- Cell proteins ([3]; dose 0.01 % w/v): 178 % against control

- Solubility in butylene glycol [4]: 54.5 g/L and 67.2 mM
- Solubility in octyl-dodecanol [4]: 0.15 g/L and 0.19 mM
Molecule: CC1OC(OCC2OC(Oc3c(-c4ccc(O)c(O)c4)oc4cc(O)cc(O)c4c3=O)C(O)C(O)C2O)C(O)C(O)C1OC(=O)CCCCCCCCCCS (stereo not drawn) [Rutin 11-mercaptoundecanoate]
- Keratinocytes DNA ([2]; dose 0.0001 % w/v): 44 % against control
- LDH released ([2]; dose 0.0001 % w/v): 75 % against control
- PGE2 released ([2]; dose 0.0001 % w/v): 26 % against control
- Keratinocytes DNA ([2]; dose 0.0003 % w/v): 41 % against control
- LDH released ([2]; dose 0.0003 % w/v): 92 % against control
- PGE2 released ([2]; dose 0.0003 % w/v): 12 % against control
- Cell GSH/protein ratio ([3]; dose 0.001 % w/v): 131 % against control
- MDA released ([3]; dose 0.001 % w/v): 34 % against control
- Cell proteins ([3]; dose 0.001 % w/v): 94 % against control
- Cell GSH/protein ratio ([3]; dose 0.003 % w/v): 283 % against control
- MDA released ([3]; dose 0.003 % w/v): 0 % against control
- Cell proteins ([3]; dose 0.003 % w/v): 89 % against control
